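Assay format: 96-well plates, 48-hour exposure. TGI: concentration producing complete growth inhibition.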
How the values were obtained:
Test in all cases: inhibition of tumour cell growth, NCI panel, 48 h
OVCAR-3 ovarian = system: OVCAR-3 ovarian
SNB-75 CNS = system: SNB-75 CNS
A549 NSCLC = system: A549 NSCLC
HCC-2998 colon = system: HCC-2998 colon
LOX IMVI melanoma = system: LOX IMVI melanoma
HOP-18 NSCLC = system: HOP-18 NSCLC
KM20L2 colon = system: KM20L2 colon
SNB-19 CNS = system: SNB-19 CNS
HOP-92 NSCLC = system: HOP-92 NSCLC
CAKI-1 renal = system: CAKI-1 renal
A498 renal = system: A498 renal
RPMI-8226 leukemia = system: RPMI-8226 leukemia
U251 CNS = system: U251 CNS
NCI-H522 lung = system: NCI-H522 lung
IGROV1 ovarian = system: IGROV1 ovarian
RXF 393 renal = system: RXF 393 renal
SF-539 CNS = system: SF-539 CNS
NCI-H460 lung = system: NCI-H460 lung
XF 498 CNS = system: XF 498 CNS
K-562 leukemia = system: K-562 leukemia
KM12 colon = system: KM12 colon
SK-MEL-2 melanoma = system: SK-MEL-2 melanoma
SN12C renal = system: SN12C renal
MALME-3M melanoma = system: MALME-3M melanoma
DMS 273 small cell lung = system: DMS 273 small cell lung
ACHN renal = system: ACHN renal
OVCAR-5 ovarian = system: OVCAR-5 ovarian
M19-MEL melanoma = system: M19-MEL melanoma
HCT-116 colon = system: HCT-116 colon
EKVX NSCLC = system: EKVX NSCLC
HOP-62 NSCLC = system: HOP-62 NSCLC
OVCAR-8 ovarian = system: OVCAR-8 ovarian
HCT-15 colon = system: HCT-15 colon
COLO 205 colon = system: COLO 205 colon
DLD-1 colon = system: DLD-1 colon
SF-268 CNS = system: SF-268 CNS
TK-10 renal = system: TK-10 renal
UO-31 renal = system: UO-31 renal
786-0 renal = system: 786-0 renal
RXF-631 renal = system: RXF-631 renal
OVCAR-4 ovarian = system: OVCAR-4 ovarian
HT29 colon = system: HT29 colon
CCRF-CEM leukemia = system: CCRF-CEM leukemia
SK-MEL-5 melanoma = system: SK-MEL-5 melanoma
NCI-H23 lung = system: NCI-H23 lung
SF-295 CNS = system: SF-295 CNS
SK-OV-3 ovarian = system: SK-OV-3 ovarian
SNB-78 CNS = system: SNB-78 CNS
MOLT-4 leukemia = system: MOLT-4 leukemia
M14 melanoma = system: M14 melanoma
HL-60(TB) leukemia = system: HL-60(TB) leukemia
SW-620 colon = system: SW-620 colon
DMS 114 small cell lung = system: DMS 114 small cell lung
UACC-62 melanoma = system: UACC-62 melanoma
UACC-257 melanoma = system: UACC-257 melanoma
LXFL 529 NSCLC = system: LXFL 529 NSCLC
NCI-H226 lung = system: NCI-H226 lung
SK-MEL-28 melanoma = system: SK-MEL-28 melanoma

With c1ccc(C2C3=C(Nc4ncnn42)c2ccccc2C3)cc1 (stereo unspecified) the TGI (OVCAR-3 ovarian) was 30.3 µM, the TGI (SNB-75 CNS) was > 100 µM and the TGI (A549 NSCLC) was > 100 µM. For the same compound, the TGI (HCC-2998 colon) was > 100 µM, the TGI (LOX IMVI melanoma) was 73.2 µM and the TGI (HOP-18 NSCLC) was > 100 µM. The TGI (KM20L2 colon) was 24.5 µM, the TGI (SNB-19 CNS) was > 100 µM and the TGI (HOP-92 NSCLC) was > 100 µM. For the same compound, the TGI (CAKI-1 renal) was > 100 µM, the TGI (A498 renal) was > 100 µM and the TGI (RPMI-8226 leukemia) was > 100 µM. The TGI (U251 CNS) was 17.7 µM, the TGI (NCI-H522 lung) was 26.5 µM and the TGI (IGROV1 ovarian) was > 100 µM. The TGI (RXF 393 renal) was > 100 µM, the TGI (SF-539 CNS) was 34.2 µM and the TGI (NCI-H460 lung) was > 100 µM. For the same compound, the TGI (XF 498 CNS) was > 100 µM, the TGI (K-562 leukemia) was > 100 µM and the TGI (KM12 colon) was > 100 µM. The TGI (SK-MEL-2 melanoma) was > 100 µM, the TGI (SN12C renal) was > 100 µM and the TGI (MALME-3M melanoma) was > 100 µM. For the same compound, the TGI (DMS 273 small cell lung) was > 100 µM, the TGI (ACHN renal) was > 100 µM and the TGI (OVCAR-5 ovarian) was > 100 µM. The TGI (M19-MEL melanoma) was > 100 µM, the TGI (HCT-116 colon) was > 100 µM and the TGI (EKVX NSCLC) was > 100 µM. The TGI (HOP-62 NSCLC) was > 100 µM, the TGI (OVCAR-8 ovarian) was > 100 µM and the TGI (HCT-15 colon) was > 100 µM. For the same compound, the TGI (COLO 205 colon) was 25.8 µM, the TGI (DLD-1 colon) was 38 µM and the TGI (SF-268 CNS) was > 100 µM. For the same compound, the TGI (TK-10 renal) was > 100 µM, the TGI (UO-31 renal) was > 100 µM and the TGI (786-0 renal) was 78.2 µM. The TGI (RXF-631 renal) was > 100 µM, the TGI (OVCAR-4 ovarian) was > 100 µM and the TGI (HT29 colon) was > 100 µM. For the same compound, the TGI (CCRF-CEM leukemia) was > 100 µM, the TGI (SK-MEL-5 melanoma) was > 100 µM and the TGI (NCI-H23 lung) was 65.1 µM. For the same compound, the TGI (SF-295 CNS) was > 100 µM, the TGI (SK-OV-3 ovarian) was > 100 µM and the TGI (SNB-78 CNS) was > 100 µM. The TGI (MOLT-4 leukemia) was > 100 µM, the TGI (M14 melanoma) was > 100 µM and the TGI (HL-60(TB) leukemia) was > 100 µM. The TGI (SW-620 colon) was 17.4 µM, the TGI (DMS 114 small cell lung) was 24.1 µM and the TGI (UACC-62 melanoma) was > 100 µM. The TGI (UACC-257 melanoma) was > 100 µM.
With COc1ccc(C2Oc3c(cc(O)c(OC)c3C)[C@@H]2C)cc1OC (stereo partly specified) the TGI (OVCAR-3 ovarian) was > 100 µM, the TGI (SNB-75 CNS) was > 100 µM and the TGI (A549 NSCLC) was > 100 µM. For the same compound, the TGI (HCC-2998 colon) was > 100 µM, the TGI (LOX IMVI melanoma) was > 100 µM and the TGI (HOP-18 NSCLC) was > 100 µM. The TGI (LXFL 529 NSCLC) was > 100 µM, the TGI (KM20L2 colon) was > 100 µM and the TGI (SNB-19 CNS) was > 100 µM. For the same compound, the TGI (HOP-92 NSCLC) was > 100 µM, the TGI (CAKI-1 renal) was > 100 µM and the TGI (A498 renal) was > 100 µM. The TGI (RPMI-8226 leukemia) was > 100 µM, the TGI (U251 CNS) was > 100 µM and the TGI (NCI-H522 lung) was > 100 µM. For the same compound, the TGI (IGROV1 ovarian) was > 100 µM, the TGI (RXF 393 renal) was > 100 µM and the TGI (SF-539 CNS) was > 100 µM. For the same compound, the TGI (NCI-H226 lung) was > 100 µM, the TGI (NCI-H460 lung) was > 100 µM and the TGI (XF 498 CNS) was > 100 µM. For the same compound, the TGI (K-562 leukemia) was > 100 µM, the TGI (KM12 colon) was > 100 µM and the TGI (SK-MEL-2 melanoma) was > 100 µM. The TGI (SK-MEL-28 melanoma) was > 100 µM, the TGI (MALME-3M melanoma) was > 100 µM and the TGI (DMS 273 small cell lung) was > 100 µM. For the same compound, the TGI (ACHN renal) was > 100 µM, the TGI (OVCAR-5 ovarian) was > 100 µM and the TGI (M19-MEL melanoma) was > 100 µM. For the same compound, the TGI (HCT-116 colon) was > 100 µM, the TGI (EKVX NSCLC) was > 100 µM and the TGI (HOP-62 NSCLC) was > 100 µM. For the same compound, the TGI (OVCAR-8 ovarian) was > 100 µM, the TGI (COLO 205 colon) was > 100 µM and the TGI (DLD-1 colon) was > 100 µM. The TGI (SF-268 CNS) was > 100 µM, the TGI (TK-10 renal) was > 100 µM and the TGI (UO-31 renal) was > 100 µM. The TGI (786-0 renal) was > 100 µM, the TGI (RXF-631 renal) was > 100 µM and the TGI (OVCAR-4 ovarian) was > 100 µM. The TGI (HT29 colon) was > 100 µM, the TGI (CCRF-CEM leukemia) was > 100 µM and the TGI (SK-MEL-5 melanoma) was > 100 µM. The TGI (NCI-H23 lung) was > 100 µM, the TGI (SF-295 CNS) was > 100 µM and the TGI (SK-OV-3 ovarian) was > 100 µM. The TGI (SNB-78 CNS) was > 100 µM, the TGI (MOLT-4 leukemia) was > 100 µM and the TGI (M14 melanoma) was > 100 µM. For the same compound, the TGI (HL-60(TB) leukemia) was > 100 µM, the TGI (SW-620 colon) was > 100 µM and the TGI (DMS 114 small cell lung) was > 100 µM. The TGI (UACC-62 melanoma) was > 100 µM and the TGI (UACC-257 melanoma) was > 100 µM.
